Source: paper PMC8286840, “Identifying SARS-CoV-2 antiviral compounds by screening for small molecule inhibitors of Nsp3 papain-like protease” (Biochemical Journal, 2021)
Where a name gives a salt, the structure may show the parent alone. Read-outs that look alike come from different tables or passages of the source.

Tests used:
[1] = target: T1, SARS-CoV-2 PLpro (nsp3 1564–1878) (Severe acute respiratory syndrome coronavirus 2, UniProt P0DTD1); assay: biochemical; set-up: FRET-quenched peptide (Pro3) cleavage by PLpro, 10 min pre-incubation, slope over 20 min, normalised to no-compound control; settings: read-out: % of control remaining
[2] = target: T1, SARS-CoV-2 PLpro (nsp3 1564–1878); assay: biochemical; set-up: FRET-quenched peptide (Pro3) cleavage by PLpro, 10 min pre-incubation, slope over 20 min, normalised to no-compound control; settings: read-out: % of control remaining; remark: listed apart in the source

## CCCC(CCC)C(=O)O [Divalproex sodium]
[1]; Well no.=5341, low concentration screen
  remaining activity at 1.25 µM: 97.2%
[2]; Well no.=5341, high concentration screen
  remaining activity at 3.75 µM: 95.4%

## CC(CCc1ccc(O)cc1)NCCc1ccc(O)c(O)c1 (stereo not drawn) [Dobutamine hydrochloride]
[1]; Well no.=587, low concentration screen
  remaining activity at 1.25 µM: 97.5%
[2]; Well no.=587, high concentration screen
  remaining activity at 3.75 µM: 99.5%

## CC(CCc1ccc(O)cc1)NCCc1ccc(O)c(O)c1 (stereo not drawn) [Dobutamine.HCl]
[1]; Well no.=1781, low concentration screen
  remaining activity at 1.25 µM: 101%
[2]; Well no.=1781, high concentration screen
  remaining activity at 3.75 µM: 103%

## CC1=C(C)C(=O)C(CCCCC#CCCCC#CCO)=C(C)C1=O [Docebenone]
[1]; Well no.=1917, low concentration screen
  remaining activity at 1.25 µM: 90.8%
[2]; Well no.=1917, high concentration screen
  remaining activity at 3.75 µM: 90.2%

## CCCCCCCCCCCCCCCCCCCCCC(=O)O [Docosanoic acid]
[1]; Well no.=4456, low concentration screen
  remaining activity at 1.25 µM: 100%
[2]; Well no.=4456, high concentration screen
  remaining activity at 3.75 µM: 99.7%

## CC/C=C\C/C=C\C/C=C\C/C=C\C/C=C\CCCCCC(=O)O [Docosapentaenoic acid]
[1]; Well no.=4347, low concentration screen
  remaining activity at 1.25 µM: 105%
[1]; Well no.=4492, low concentration screen
  remaining activity at 1.25 µM: 93.7%
[2]; Well no.=4347, high concentration screen
  remaining activity at 3.75 µM: 105%
[2]; Well no.=4492, high concentration screen
  remaining activity at 3.75 µM: 91.7%

## CCCCC(CC)COC(=O)CC(C(=O)OCC(CC)CCCC)S(=O)(=O)O (stereo not drawn) [Docusate Sodium]
[1]; Well no.=8348, low concentration screen
  remaining activity at 1.25 µM: 94.3%
[2]; Well no.=8348, high concentration screen
  remaining activity at 3.75 µM: 92.6%

## CCCCCCCCCCCC(=O)O [Dodecanoic acid]
[1]; Well no.=4256, low concentration screen
  remaining activity at 1.25 µM: 101%
[2]; Well no.=4256, high concentration screen
  remaining activity at 3.75 µM: 94.8%

## CN(CCOc1ccc(NS(C)(=O)=O)cc1)CCc1ccc(NS(C)(=O)=O)cc1 [Dofetilide]
[1]; Well no.=1659, low concentration screen
  remaining activity at 1.25 µM: 108%
[2]; Well no.=1659, high concentration screen
  remaining activity at 3.75 µM: 106%

## O=C(O[C@@H]1C[C@@H]2C[C@H]3C[C@H](C1)N2CC3=O)c1c[nH]c2ccccc12 [Dolasetron (Mesylate hydrate)]
[1]; Well no.=7381, low concentration screen
  remaining activity at 1.25 µM: 108%
[2]; Well no.=7381, high concentration screen
  remaining activity at 3.75 µM: 98%

## O=C(O[C@@H]1C[C@@H]2C[C@H]3C[C@H](C1)N2CC3=O)c1c[nH]c2ccccc12 [Dolasetron]
[1]; Well no.=1870, low concentration screen
  remaining activity at 1.25 µM: 96.1%
[1]; Well no.=6235, low concentration screen
  remaining activity at 1.25 µM: 106%
[2]; Well no.=1870, high concentration screen
  remaining activity at 3.75 µM: 96.3%
[2]; Well no.=6235, high concentration screen
  remaining activity at 3.75 µM: 105%

## C/C(=C/C=C/[C@@H](C)C(=O)O)[C@H]1CN[C@H](C(=O)O)[C@H]1CC(=O)O [Domoic acid]
[1]
  remaining activity at 1.25 µM: 99.4%
[2]
  remaining activity at 3.75 µM: 102%

## O=c1[nH]c2ccccc2n1CCCN1CCC(n2c(=O)[nH]c3cc(Cl)ccc32)CC1 [Domperidone]
[1]; Well no.=496, low concentration screen
  remaining activity at 1.25 µM: 107%
[1]; Well no.=1598, low concentration screen
  remaining activity at 1.25 µM: 96.5%
[1]; Well no.=7485, low concentration screen
  remaining activity at 1.25 µM: 94%
[2]; Well no.=496, high concentration screen
  remaining activity at 3.75 µM: 104%
[2]; Well no.=1598, high concentration screen
  remaining activity at 3.75 µM: 99.4%
[2]; Well no.=7485, high concentration screen
  remaining activity at 3.75 µM: 89.8%

## NCCc1ccc(O)c(O)c1 [Dopamine (hydrochloride)]
[1]; Well no.=6268, low concentration screen
  remaining activity at 1.25 µM: 96.9%
[2]; Well no.=6268, high concentration screen
  remaining activity at 3.75 µM: 96.3%

## NCCc1ccc(O)c(O)c1 [Dopamine hydrochloride]
[1]; Well no.=518, low concentration screen
  remaining activity at 1.25 µM: 102%
[2]; Well no.=518, high concentration screen
  remaining activity at 3.75 µM: 99.9%

## C[C@@H](O)[C@H]1C(=O)N2C(C(=O)O)=C(S[C@@H]3CN[C@H](CNS(N)(=O)=O)C3)[C@H](C)[C@H]12 [Doripenem Hydrate]
[1]; Well no.=5203, low concentration screen
  remaining activity at 1.25 µM: 103%
[2]; Well no.=5203, high concentration screen
  remaining activity at 3.75 µM: 104%

## CCN[C@H]1C[C@H](C)S(=O)(=O)c2sc(S(N)(=O)=O)cc21 [Dorzolamide HCl]
[1]; Well no.=5205, low concentration screen
  remaining activity at 1.25 µM: 92.8%
[2]; Well no.=5205, high concentration screen
  remaining activity at 3.75 µM: 95%

## CCN[C@H]1C[C@H](C)S(=O)(=O)c2sc(S(N)(=O)=O)cc21 [Dorzolamide.HCl]
[1]; Well no.=1878, low concentration screen
  remaining activity at 1.25 µM: 96.7%
[2]; Well no.=1878, high concentration screen
  remaining activity at 3.75 µM: 96.1%

## CCN1CC(CCN2CCOCC2)C(c2ccccc2)(c2ccccc2)C1=O (stereo not drawn) [Doxapram HCl]
[1]; Well no.=5120, low concentration screen
  remaining activity at 1.25 µM: 98.8%
[2]; Well no.=5120, high concentration screen
  remaining activity at 3.75 µM: 96.1%

## COc1cc2nc(N3CCN(C(=O)C4COc5ccccc5O4)CC3)nc(N)c2cc1OC (stereo not drawn) [Doxazosin (mesylate)]
[1]; Well no.=8187, low concentration screen
  remaining activity at 1.25 µM: 105%
[2]; Well no.=8187, high concentration screen
  remaining activity at 3.75 µM: 102%

## COc1cc2nc(N3CCN(C(=O)C4COc5ccccc5O4)CC3)nc(N)c2cc1OC (stereo not drawn) [Doxazosin mesylate]
[1]; Well no.=730, low concentration screen
  remaining activity at 1.25 µM: 98.2%
[2]; Well no.=730, high concentration screen
  remaining activity at 3.75 µM: 93.7%

## COc1cc2nc(N3CCN(C(=O)C4COc5ccccc5O4)CC3)nc(N)c2cc1OC (stereo not drawn) [Doxazosin]
[1]; Well no.=1988, low concentration screen
  remaining activity at 1.25 µM: 103%
[2]; Well no.=1988, high concentration screen
  remaining activity at 3.75 µM: 104%

## CN(C)CCC=C1c2ccccc2COc2ccccc21 [Doxepin hydrochloride]
[1]; Well no.=451, low concentration screen
  remaining activity at 1.25 µM: 105%
[2]; Well no.=451, high concentration screen
  remaining activity at 3.75 µM: 102%

## C[C@H]1O[C@@H](n2cc(F)c(=O)[nH]c2=O)[C@H](O)[C@@H]1O [Doxifluridine]
[1]; Well no.=1990, low concentration screen
  remaining activity at 1.25 µM: 101%
[1]; Well no.=8843, low concentration screen
  remaining activity at 1.25 µM: 96.7%
[2]; Well no.=1990, high concentration screen
  remaining activity at 3.75 µM: 103%
[2]; Well no.=8843, high concentration screen
  remaining activity at 3.75 µM: 89.3%

## Cn1c(=O)c2c(ncn2CC2OCCO2)n(C)c1=O [Doxofylline]
[1]; Well no.=2020, low concentration screen
  remaining activity at 1.25 µM: 100%
[1]; Well no.=8323, low concentration screen
  remaining activity at 1.25 µM: 99.7%
[2]; Well no.=2020, high concentration screen
  remaining activity at 3.75 µM: 99.1%
[2]; Well no.=8323, high concentration screen
  remaining activity at 3.75 µM: 94.2%

## COc1cccc2c1C(=O)c1c(O)c3c(c(O)c1C2=O)C[C@@](O)(C(=O)CO)C[C@@H]3O[C@H]1C[C@H](N)[C@H](O)[C@H](C)O1 [Doxorubicin.HCl]
[1]; Well no.=1710, low concentration screen
  remaining activity at 1.25 µM: 98.5%
[1]; Well no.=3235, low concentration screen
  remaining activity at 1.25 µM: 105%
[2]; Well no.=1710, high concentration screen
  remaining activity at 3.75 µM: 100%
[2]; Well no.=3235, high concentration screen
  remaining activity at 3.75 µM: 105%

## C[C@H]1c2cccc(O)c2C(=O)C2=C(O)[C@]3(O)C(=O)C(C(N)=O)=C(O)[C@@H](N(C)C)[C@@H]3[C@@H](O)[C@@H]21 [Doxycycline hydrochloride]
[1]; Well no.=396, low concentration screen
  remaining activity at 1.25 µM: 105%
[2]; Well no.=396, high concentration screen
  remaining activity at 3.75 µM: 108%

## C[C@H]1c2cccc(O)c2C(=O)C2=C(O)[C@]3(O)C(=O)C(C(N)=O)=C(O)[C@@H](N(C)C)[C@@H]3[C@@H](O)[C@@H]21 [Doxycycline]
[1]; Well no.=2022, low concentration screen
  remaining activity at 1.25 µM: 106%
[2]; Well no.=2022, high concentration screen
  remaining activity at 3.75 µM: 107%

## CN(C)CCOC(C)(c1ccccc1)c1ccccn1 (stereo not drawn) [Doxylamine (succinate)]
[1]; Well no.=6421, low concentration screen
  remaining activity at 1.25 µM: 99.2%
[2]; Well no.=6421, high concentration screen
  remaining activity at 3.75 µM: 102%

## CN(C)CCOC(C)(c1ccccc1)c1ccccn1 (stereo not drawn) [Doxylamine succinate]
[1]; Well no.=497, low concentration screen
  remaining activity at 1.25 µM: 102%
[2]; Well no.=497, high concentration screen
  remaining activity at 3.75 µM: 104%

## CN(C)C(=S)NN=C(c1ccccn1)c1ccccn1 [Dp44mT]
[1]; Well no.=5584, low concentration screen
  remaining activity at 1.25 µM: 99.1%
[2]; Well no.=5584, high concentration screen
  remaining activity at 3.75 µM: 101%

## CCCCc1oc2ccc(NS(C)(=O)=O)cc2c1C(=O)c1ccc(OCCCN(CCCC)CCCC)cc1 [Dronedarone]
[1]; Well no.=8285, low concentration screen
  remaining activity at 1.25 µM: 100%
[2]; Well no.=8285, high concentration screen
  remaining activity at 3.75 µM: 94.4%
